In patent US7625939B2, “Cyclopropyl-fused pyrrolidine derivatives as dipeptidyl peptidase IV inhibitors” (Probiodrug AG, priority 2005, dated 2009) one finds IC50 data, which are given here for three molecules.

Type in all cases: biochemical
Holding throughout (conditions): Gly-Pro-pNA 0.4 mM, HEPES pH 7.6, 30° C.

One test has as its target human recombinant DP II (Homo sapiens, UniProt Q9UHL4). The test is described as follows: IC50 of DP II inhibition, human recombinant enzyme (Gly-Pro-pNA substrate). As for the experimental part: (§1) 100 μl inhibitor stock solution were mixed with 100 μl buffer (HEPES pH 7.6) and 50 μl substrate (Gly-Pro-pNA, final concentration 0.4 mM) and preincubated at 30° C. Reaction was started by addition of 20 μl enzyme solution (either purified porcine DP IV, human recombinant DP IV, human recombinant DP II or human recombinant DP9). Formation of the product pNA was measured at 405 nm over 10 min using the HTS 7000Plus plate reader (Perkin Elmer) and slopes were calculated. The final inhibitor concentrations ranged between 1 mM and 30 nM.
(§2) For calculation of IC50-values GraFit 4.0.13 (Erithacus Software) was used.

The next test has as its target human recombinant DP9 (Homo sapiens, UniProt Q86TI2). The test is described as follows: IC50 of DP9 inhibition, human recombinant enzyme (Gly-Pro-pNA substrate). As for the experimental part:
as §1, §2

In the next test the target is human recombinant DP IV (Homo sapiens, UniProt P27487). As to the kind of experiment: IC50 of DP IV inhibition, human recombinant enzyme (Gly-Pro-pNA substrate). As for the experimental part: as §1, §2
human recombinant DP IV, sequence (P27487 whole entry): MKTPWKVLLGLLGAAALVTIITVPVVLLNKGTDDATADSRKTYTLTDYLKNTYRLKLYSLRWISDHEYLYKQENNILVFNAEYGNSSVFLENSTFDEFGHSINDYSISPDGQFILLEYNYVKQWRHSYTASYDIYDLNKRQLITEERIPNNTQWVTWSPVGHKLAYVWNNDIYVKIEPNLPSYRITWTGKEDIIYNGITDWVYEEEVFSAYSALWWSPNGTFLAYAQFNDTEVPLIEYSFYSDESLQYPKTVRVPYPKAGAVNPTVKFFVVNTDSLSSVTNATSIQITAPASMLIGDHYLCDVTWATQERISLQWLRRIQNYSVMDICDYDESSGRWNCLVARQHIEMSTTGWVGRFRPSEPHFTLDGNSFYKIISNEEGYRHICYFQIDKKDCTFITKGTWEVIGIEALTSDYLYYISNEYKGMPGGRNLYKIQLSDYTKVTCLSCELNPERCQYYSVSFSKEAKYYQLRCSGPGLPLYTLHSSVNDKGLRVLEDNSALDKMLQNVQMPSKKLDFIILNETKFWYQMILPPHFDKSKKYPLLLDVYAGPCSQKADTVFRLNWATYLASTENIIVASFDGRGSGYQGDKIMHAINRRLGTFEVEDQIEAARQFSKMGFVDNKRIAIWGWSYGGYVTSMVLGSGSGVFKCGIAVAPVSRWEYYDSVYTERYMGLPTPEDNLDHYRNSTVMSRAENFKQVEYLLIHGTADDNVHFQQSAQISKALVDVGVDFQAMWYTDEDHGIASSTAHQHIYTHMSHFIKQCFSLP
The next test has as its target T1, purified porcine DP IV (Sus scrofa, UniProt P22411).
T1 construct: purified porcine DP IV; from tissue; host or cells: porcine kidney
The test is described as follows: IC50 of DP IV inhibition, porcine kidney enzyme (Gly-Pro-pNA substrate). Here is the method:
as §1, §2

In general, IC50 refers to the concentration needed to halve the response being measured.

human recombinant DP9, sequence (Q86TI2 whole entry): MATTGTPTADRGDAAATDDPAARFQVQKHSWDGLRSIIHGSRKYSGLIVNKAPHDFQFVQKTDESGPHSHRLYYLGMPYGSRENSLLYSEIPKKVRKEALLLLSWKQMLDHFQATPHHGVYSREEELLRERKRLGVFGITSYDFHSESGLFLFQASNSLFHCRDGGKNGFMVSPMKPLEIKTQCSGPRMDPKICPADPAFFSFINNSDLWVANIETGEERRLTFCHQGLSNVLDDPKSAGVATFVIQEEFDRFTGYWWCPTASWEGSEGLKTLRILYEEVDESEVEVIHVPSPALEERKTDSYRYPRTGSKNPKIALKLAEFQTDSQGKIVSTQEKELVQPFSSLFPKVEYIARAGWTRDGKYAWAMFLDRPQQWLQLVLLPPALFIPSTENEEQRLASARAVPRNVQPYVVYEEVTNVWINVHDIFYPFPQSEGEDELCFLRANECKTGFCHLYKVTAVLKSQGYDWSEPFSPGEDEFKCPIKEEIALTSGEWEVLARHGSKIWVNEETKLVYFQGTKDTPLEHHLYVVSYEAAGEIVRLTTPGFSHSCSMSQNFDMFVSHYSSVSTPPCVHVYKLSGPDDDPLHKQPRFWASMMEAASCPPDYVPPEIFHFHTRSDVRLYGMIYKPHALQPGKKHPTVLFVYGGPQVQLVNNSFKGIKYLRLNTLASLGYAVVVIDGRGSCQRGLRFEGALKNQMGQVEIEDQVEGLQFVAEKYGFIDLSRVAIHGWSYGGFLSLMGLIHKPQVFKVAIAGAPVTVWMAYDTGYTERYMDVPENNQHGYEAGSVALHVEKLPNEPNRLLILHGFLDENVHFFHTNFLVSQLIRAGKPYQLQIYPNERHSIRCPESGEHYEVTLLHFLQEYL
T1 sequence (P22411 whole entry): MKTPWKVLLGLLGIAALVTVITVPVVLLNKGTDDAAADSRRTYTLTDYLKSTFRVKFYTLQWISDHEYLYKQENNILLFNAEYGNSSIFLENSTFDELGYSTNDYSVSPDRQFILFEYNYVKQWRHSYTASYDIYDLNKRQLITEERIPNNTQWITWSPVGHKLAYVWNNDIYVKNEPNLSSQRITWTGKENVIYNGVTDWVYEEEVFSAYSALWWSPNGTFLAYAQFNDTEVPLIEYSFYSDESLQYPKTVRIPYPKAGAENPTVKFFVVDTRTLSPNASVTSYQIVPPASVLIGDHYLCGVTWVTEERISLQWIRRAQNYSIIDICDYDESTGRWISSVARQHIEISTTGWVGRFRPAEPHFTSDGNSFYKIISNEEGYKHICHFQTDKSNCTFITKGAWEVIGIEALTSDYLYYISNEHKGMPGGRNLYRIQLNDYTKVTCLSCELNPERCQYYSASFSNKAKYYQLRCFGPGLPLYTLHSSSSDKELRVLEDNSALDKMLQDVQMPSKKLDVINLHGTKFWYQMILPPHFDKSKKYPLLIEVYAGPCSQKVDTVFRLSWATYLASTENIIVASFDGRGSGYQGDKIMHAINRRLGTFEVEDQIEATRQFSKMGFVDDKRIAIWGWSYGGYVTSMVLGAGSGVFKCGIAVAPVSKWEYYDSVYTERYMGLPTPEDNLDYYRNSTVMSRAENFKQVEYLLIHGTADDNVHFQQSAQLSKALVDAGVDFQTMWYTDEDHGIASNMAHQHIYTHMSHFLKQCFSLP

Consider `CC[C@H](C)[C@H](N)C(=O)N1CC2CC2C1B(O)O` (stereo partly drawn) [Example 3], for which the half-maximal inhibitory concentration (IC50) on human recombinant DP II was determined as 1.47 µM; on human recombinant DP9, 0.0108 µM; on human recombinant DP IV it was 0.0451 µM; at purified porcine DP IV, 0.00946 µM.
For `CC(C)[C@H](N)C(=O)N1CC2CC2C1B(O)O` (stereo partly drawn) [Example 1], in that order: 3.82 µM, 0.0159 µM, 0.0316 µM and 0.00353 µM.
For the molecule `CC(C)(C)[C@H](N)C(=O)N1CC2CC2C1B(O)O` (stereo partly drawn) [Example 2], the half-maximal inhibitory concentration (IC50) was 21.1 µM on human recombinant DP II, 0.0184 µM on human recombinant DP9, 0.075 µM at human recombinant DP IV and 0.0102 µM at purified porcine DP IV.
